One experiment concerns p38MAPK. Description: Western blot of serum-induced p38MAPK phosphorylation in SKOV3 cells. The class given is cell-based, human. As to conditions: SKOV3, KI 5 μM or 10 μM 1 h prior to 15 min 10% serum stimulation. The procedure:
(§1) After overnight serum starvation (—FBS), SKOV3 cells and SKOV3 stable cell lines were stimulated with 10% serum for 15 minutes (+FBS). SKOV3 cell line was treated or not with 5 μM or 10 μM MAP3K8 kinase inhibitor as indicated (KI_5 μM or KI_10 μM) for 1 h prior to serum stimulation. After treatment, cells were washed once with cold PBS and scraped on ice with lysis buffer (50 mM Tris-HCl pH 7.5, 1 mM EDTA, 1 mM EGTA, 1% triton X-100, 1 mM Na3VO4, 50mMNaF, 0.27M sucrose, 0.1% β-mercaptoethanol) supplemented with EDTA-free protease inhibitor cocktail tablet (Roche #1836170). For immunoprecipitation (IP), 4×10^6 SKOV3 cells were plated into 10 cm petri dish. […] The protein concentration of the supernatant was determined using the Bio-Rad Dc Protein Assay Kit according to the manufacturer's instructions (Bio-Rad Laboratories). […]
(§2) For western blot analysis, samples were loaded onto homemade or precast 10% polyacrylamide gels (Invitrogen). […] Specific binding of antibodies was detected using appropriate peroxidase-conjugated secondary antibodies (Jackson ImmunoResearch Laboratories #115-035-003 and 115-035-045), and was visualized by enhanced chemiluminescence detection (Western Lightning® Plus-ECL, PerkinElmer). […]

The next experiment concerns JNK. Put plainly: Western blot of JNK phosphorylation in SKOV3 cells. The class given is cell-based, human. As to conditions: SKOV3, KI 5 μM or 10 μM 1 h prior to 15 min 10% serum stimulation; not significant. The procedure: as §1, §2
In general terms: A western blot detects proteins with antibodies after separation by electrophoresis.

Experiment [1] relates to SKOV3 cells. Put plainly: Transwell migration assay. In kind it is cell-based, human. Conditions: KI treatment, 5 h. Here is the method:
(§3) 12 wells cell culture insert, and 24 wells Transwell BioCoat™ growth factor reduced Matrigel™ invasion chambers (BD Biosciences, […]) were used for migration and invasion assays, respectively. After overnight serum starvation, cells were plated to the upper side of the Transwell device, at least in duplicates, in serum free medium, while the lower well contained regular 10% FBS culture medium in order to create an FBS gradient. The inventors plated 80,000 cells for migration assay and ended the experiment 5 h later. For invasion assay, the inventors plated 50,000 and stopped the experiment 24 h later. At the end of the experiment, the remaining cells in the upper side of the Transwell device were removed. Migrating and invading cells at the bottom side of the Transwell device were fixed and stained with crystal violet for 30 minutes and then counted in the central field (×2.5 objective, Zeiss Axioplan microscope, AxioCamERc 5s).

The subject of another experiment is NF-κB. Put plainly: Western blot of serum-induced NF-κB phosphorylation in SKOV3 cells. As to conditions: SKOV3, KI 5 μM or 10 μM 1 h prior to 15 min 10% serum stimulation. The class given is cell-based, human. Here is the method:
as §1, §2

The test system of experiment [2] is SKOV3 cells. Put plainly: Growth kinetics of SKOV3 cells (living cells counted by trypan blue exclusion). The class given is cell-based, human. Here is the method: (§4) The human epithelial ovarian cancer cell line SKOV3 and the SKOV3 stable cell lines were propagated in DMEM (Gibco) supplemented with 10% fetal bovine serum (FBS, PAA), penicillin and streptomycin (Gibco). 1 μg/mL puromycin was added only for SKOV3 stable cell lines. For SKOV3 stable cell lines, 10% serum stimulation was performed after overnight serum starvation for the indicated times. SKOV3 cells were plated and immediately treated or not with 5 μM MAP3K8 kinase inhibitor (KI, Calbiochem #616373) for the indicated times. The number of living cells was measured by trypan blue exclusion using Vi-Cell analyzer (Beckman Coulter). Cell cycle distributions were performed on ethanol-fixed cells, stained with propidium iodide and analyzed by flow cytometry. Flow cytometry data were acquired using CellQuest Pro (Becton Dickinson) software on the FACS LSRII machine (Becton Dickinson) and were analyzed using ModfitLT (Verity) software.

The next experiment relates to MEK. Put plainly: Western blot of serum-induced MEK phosphorylation in SKOV3 cells. In kind it is cell-based, human. Conditions: SKOV3, KI 5 μM or 10 μM 1 h prior to 15 min 10% serum stimulation. Here is the method:
as §1, §2

The test system of the next experiment is ERK. Description: Western blot of serum-induced ERK phosphorylation in SKOV3 cells. The class given is cell-based, human. As to conditions: SKOV3, KI 5 μM or 10 μM 1 h prior to 15 min 10% serum stimulation. The procedure:
as §1, §2

Experiment [3] has as its system SKOV3 cells. Put plainly: Cell cycle analysis by flow cytometry (propidium iodide). As to conditions: KI treatment vs untreated control cells. The class given is cell-based, human. The procedure:
as §4

Experiment [4] concerns SKOV3 cells. Description: Transwell BioCoat Matrigel invasion assay. In kind it is cell-based, human. Conditions: KI treatment, 24 h. Here is the method: as §3
The test system of experiment [5] is high-MAP3K8 PDX model. Description: Lung metastasis detection in PDX by RT-qPCR for human Alu sequences. Conditions: compared to low-MAP3K8 PDX model. The class given is in vivo, mouse.
For another experiment, the system named is low-MAP3K8 PDX model. Put plainly: Efficacy study in patient-derived xenograft, low-MAP3K8 PDX model. In kind it is in vivo, mouse. Conditions: for tumor growth inhibition (TGI): per os 5 times a week for 4 weeks, AZD6244 50 mg/kg, MEK162 25 mg/kg; for tumor growth: treated vs untreated. Here is the method: (§5) Grafting experiments were performed by subcutaneous injection of 2.7×10^6 exponentially growing SKOV3 stable cell lines into each flank of 6-week-old female Swiss nude mice (at least five mice per group). Patient derived xenograft (PDX) models of EOC tumors were established at the Curie Institute with patient consent (Paris, France). For efficacy studies in PDX models, at least 8 mice per group were treated per os 5 times a week for 4 weeks either left untreated (Ctrl) or treated with the following MEK inhibitors AZD6244 at 50 mg/kg, (Selleckchem #S100817) or MEK162 25 mg/kg (Active Biochem #A-1128) both diluted into 2% DMSO, 10% 2-Hydroxypropyl-beta-cyclodextrin, 5% glucose in PBS. Tumor growth was evaluated by measuring two perpendicular diameters of tumors with a caliper twice a week. Individual tumor volumes were calculated as (V)=a×b2/2, with a being the major diameter, and b the minor one. For each tumor, V was reported to the initial volume as relative tumor volume (RTV). Means (and s.e.m) of RTV in the same treatment group were calculated, and growth curves were established as a function of time. The tumor growth inhibition (TGI) was calculated using the following formula: 100−100×([…]). Curie Institute ethical committee approved all experiments.
(In general: Xenograft models place foreign cells or tissue in a host animal.)

Experiment [6] deals with high-MAP3K8 PDX model. Put plainly: Efficacy study in patient-derived xenograft, high-MAP3K8 PDX model. In kind it is in vivo, mouse. Conditions: for tumor growth inhibition (TGI): per os 5 times a week for 4 weeks, AZD6244 50 mg/kg, MEK162 25 mg/kg; for tumor growth: treated vs untreated. Here is the method: as §5

For `N#Cc1cnc2cnc(NCc3cccnc3)cc2c1Nc1ccc(F)c(Cl)c1` [KI], the “serum-induced p38MAPK phosphorylation” value with p38MAPK was “not affected”. Moreover, in the experiment on JNK, the JNK phosphorylation result is “slight decrease”. For the same molecule, in the experiment on SKOV3 cells [1], the cell migration result is recorded as “significantly reduced cell migration”. For the same molecule, the “serum-induced NF-κB phosphorylation” value in the experiment on NF-κB is on record as “not affected”. Also, in the experiment with SKOV3 cells [2] (5 μM KI vs untreated), the “total number of cells” value is on record as “reduced the total number of cells”. Further, the cell viability entry in the experiment on SKOV3 cells [2] (KI treatment) was “without any impact on cell viability”. Further, the cell doubling time result in the experiment with SKOV3 cells [2] (KI treatment vs untreated) was “increase in cell doubling time”. Moreover, the “serum-induced MEK phosphorylation” value in the experiment with MEK is recorded as “significantly reduced”. The “serum-induced ERK phosphorylation” value in the experiment on ERK was “significantly reduced”. In addition, the “percentage of cells in G1 phase” value in the experiment with SKOV3 cells [3] is “significant increase”. For the same molecule, the cell invasion entry in the experiment on SKOV3 cells [4] is “inhibited”.
For `Cn1cnc2c(F)c(Nc3ccc(Br)cc3Cl)c(C(=O)NOCCO)cc21` [AZD6244], the lung metastatic incidence result in the experiment with high-MAP3K8 PDX model [5] was “significantly reduced”. The “tumor growth inhibition (TGI)” value in the experiment on low-MAP3K8 PDX model is recorded as 22%; in the experiment on high-MAP3K8 PDX model [6], approximately 60%. The tumor growth result is recorded as “much less impact” in the experiment on low-MAP3K8 PDX model and “markedly reduced tumor growth” in the experiment with high-MAP3K8 PDX model [6].
As for `Cn1cnc2c(F)c(Nc3ccc(Br)cc3F)c(C(=O)NOCCO)cc21` [MEK162], in the experiment with high-MAP3K8 PDX model [5], the lung metastatic incidence entry is listed as “significantly reduced”. The figures for the “tumor growth inhibition (TGI)” value in the experiment with low-MAP3K8 PDX model and with high-MAP3K8 PDX model [6] were 22% and approximately 60%, respectively. Also, the results for the tumor growth result in the experiment on low-MAP3K8 PDX model and with high-MAP3K8 PDX model [6] were “much less impact” and “markedly reduced tumor growth”, respectively.

The record behind these values is US20170242015A1, “MAP3K8 AS A MARKER FOR SELECTING A PATIENT AFFECTED WITH AN OVARIAN CANCER FOR A TREATMENT WITH A MEK INHIBITOR” (INSTITUT CURIE, priority 2014, published 2017).
